For orientation: Ki means the dissociation constant of the complex between target and ligand, obtained from inhibition or displacement.

The target in one assay is Mcl-1 (Homo sapiens (Human), UniProt Q07820). Briefly: TR-FRET binding assay, FITC-Bak peptide and MBP-tagged Mcl-1. The conditions noted are these: read-out: Ki for Inhibition of Mcl-1 by TR-FRET assay. How it is done:
Compounds are diluted in DMSO in a 16-point, semilog serial dilution scheme. […] The plate was mixed and incubated for 3 hours at room temperature. […] TR-FRET signal is plotted and IC50 and Ki values are calculated in the same manner as the fluorescence polarization anisotropy based competition assays.
A general note: TR-FRET usually uses a lanthanide donor and a delayed reading to cut background.

Assay [1] relates to H929 human cancer cell lines. Briefly: Cellular viability / proliferation (Cell TiterGlo, 72 h). Type of assay: cell-based. The conditions noted are these: Homo sapiens, NCI-H929, 72 h, read-out: GI50 on cellular proliferation of H929 human cancer cell lines, H929 cells, 72 h, Cell TiterGlo, 10% FBS. Put shortly:
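1,000 cells/well, 10% FBS medium; compound added at 24 h, 2-fold dilutions from 50 μM top, DMSO <1% final. 72 h exposure, CellTiterGlo 30 min RT dark, luminescence read. IC50 by 4-parameter fit.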
On the technique in general: ATP-based viability assays read luminescence as a measure of living cells.

SMILES strings stand for the structures.

Sequence of Mcl-1 (Q07820 172-327): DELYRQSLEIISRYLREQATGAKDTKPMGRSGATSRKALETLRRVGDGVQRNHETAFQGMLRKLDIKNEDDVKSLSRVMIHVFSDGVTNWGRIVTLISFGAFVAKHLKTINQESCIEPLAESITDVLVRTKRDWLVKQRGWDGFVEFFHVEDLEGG

For `Cc1cc(OCCCc2c3n(c4c(-c5c(C)nn(C)c5C)c(Cl)ccc24)[C@H](C)CN(c2cn(C)c4ccc(-c5ncn(-c6ccccn6)n5)cc24)C3=O)cc(C)c1Cl` [Example 647, (R)-7-Chloro-10-(3-(4-chloro-3,5-dimethylphenoxy)propyl)-4-methyl-2-(1-methyl-5-(1-(pyridin-2-yl)-1H-1,2,4-triazol-3-yl)-1H-indol-3-yl)-6-(1,3,5-trimethyl-1H-pyrazol-4-yl)-3,4-dihydropyrazino[1,2-a]indol-1(2H)-one], the inhibition constant Ki on Mcl-1 turned out to be 0.32 nM. For the same molecule, the GI50 in assay [1] worked out at 1100 nM.
In the same order, the values of `Cc1cc(OCCCc2c3n(c4c(-c5c(C)nn(C)c5C)c(Cl)ccc24)[C@H](C)CN(c2cn(C)c4ccc(-c5ncn(-c6ncccn6)n5)cc24)C3=O)cc(C)c1Cl` [Example 646, (R)-7-Chloro-10-(3-(4-chloro-3,5-dimethylphenoxy)propyl)-4-methyl-2-(1-methyl-5-(1-(pyrimidin-2-yl)-1H-1,2,4-triazol-3-yl)-1H-indol-3-yl)-6-(1,3,5-trimethyl-1H-pyrazol-4-yl)-3,4-dihydropyrazino[1,2-a]indol-1(2H)-one] are 0.3 nM and 240 nM.
Taken in the same sequence, the figures for `COc1ccc(N2C[C@@H](C)n3c(c(CCCOc4cc(C)c(Cl)c(C)c4)c4ccc(Cl)c(-c5c(C)nn(C)c5C)c43)C2=O)c2c1c(C(=O)O)cn2Cc1cc(C)ccn1` [Example 619, (R)-7-(7-chloro-10-(3-(4-chloro-3,5-dimethylphenoxy)propyl)-4-methyl-1-oxo-6-(1,3,5-trimethyl-1H-pyrazol-4-yl)-3,4-dihydropyrazino[1,2-a]indol-2(1H)-yl)-4-methoxy-1-((4-methylpyridin-2-yl)methyl)-1H-indole-3-carboxylic acid] were 0.26 nM and 470 nM.
In the same order, the values of `Cc1cc(OCCCc2c3n(c4c(-c5c(C)nn(C)c5C)c(Cl)ccc24)[C@H](C)CN(c2cc(C(=O)O)cc4cc(C(=O)O)n(C)c24)C3=O)cc(C)c1Cl` [Example 697, (R)-7-(7-chloro-10-(3-(4-chloro-3,5-dimethylphenoxy)propyl)-4-methyl-1-oxo-6-(1,3,5-trimethyl-1H-pyrazol-4-yl)-3,4-dihydropyrazino[1,2-a]indol-2(1H)-yl)-1-methyl-1H-indole-2,5-dicarboxylic acid] are less than 0.2 nM and 2000 nM.
Regarding `COCCn1cc(C(=O)O)c2cccc(N3C[C@@H](C)n4c(c(CCCOc5cc(C)c(Cl)c(C)c5)c5ccc(Cl)c(-c6c(C)nn(C)c6C)c54)C3=O)c21` [Example 512, (R)-7-(7-Chloro-10-(3-(4-chloro-3,5-dimethylphenoxy)propyl)-4-methyl-1-oxo-6-(1,3,5-trimethyl-1H-pyrazol-4-yl)-3,4-dihydropyrazino[1,2-a]indol-2(1H)-yl)-1-(2-methoxyethyl)-1H-indole-3-carboxylic acid], on Mcl-1, the Ki was less than 0.2 nM. Further, in assay [1], the GI50 amounted to 220 nM.
For the molecule `Cc1cc(OCCCc2c3n(c4c(-c5c(C)nn(C)c5C)c(Cl)ccc24)[C@H](C)CN(c2cccc4cc(C(=O)O)n(Cc5ccncn5)c24)C3=O)cc(C)c1Cl` [Example 518, (R)-7-(7-chloro-10-(3-(4-chloro-3,5-dimethylphenoxy)propyl)-4-methyl-1-oxo-6-(1,3,5-trimethyl-1H-pyrazol-4-yl)-3,4-dihydropyrazino[1,2-a]indol-2(1H)-yl)-1-(pyrimidin-4-ylmethyl)-1H-indole-2-carboxylic acid], the inhibition constant (Ki) at Mcl-1 was less than 0.2 nM. Moreover, in assay [1], the GI50 was determined as 810 nM.
Taken in the same sequence, the figures for `COCCOCc1cc(N2C[C@@H](C)n3c(c(CCCOc4cc(C)c(Cl)c(C)c4)c4ccc(Cl)c(-c5c(C)nn(C)c5C)c43)C2=O)c2c(c1)cc(C(=O)O)n2C` [Example 595, (R)-7-(7-chloro-10-(3-(4-chloro-3,5-dimethylphenoxy)propyl)-4-methyl-1-oxo-6-(1,3,5-trimethyl-1H-pyrazol-4-yl)-3,4-dihydropyrazino[1,2-a]indol-2(1H)-yl)-5-((2-methoxyethoxy)methyl)-1-methyl-1H-indole-2-carboxylic acid] were less than 0.2 nM and less than 200 nM.
As to `COc1ccc(N2C[C@@H](C)n3c(c(CCCOc4cc(C)c(Cl)c(C)c4)c4ccc(Cl)c(-c5c(C)ncnc5C)c43)C2=O)c2c1cc(C(=O)O)n2Cc1cccc(C)n1` [Example 477, (R)-7-(7-Chloro-10-(3-(4-chloro-3,5-dimethylphenoxy)propyl)-6-(4,6-dimethylpyrimidin-5-yl)-4-methyl-1-oxo-3,4-dihydropyrazino[1,2-a]indol-2(1H)-yl)-4-methoxy-1-((6-methylpyridin-2-yl)methyl)-1H-indole-2-carboxylic acid], the Ki at Mcl-1 was less than 0.2 nM. Besides, the GI50 in assay [1] was less than 200 nM.
Taken in the same sequence, the figures for `Cc1cc(OCCCc2c3n(c4c(-c5c(C)cc(OCCN6CCCC6)cc5C)c(Cl)ccc24)[C@H](C)CN(c2cn(C)c4ccc(C(=O)O)cc24)C3=O)cc(C)c1Cl` [Example 508, (R)-3-(7-chloro-10-(3-(4-chloro-3,5-dimethylphenoxy)propyl)-6-(2,6-dimethyl-4-(2-(pyrrolidin-1-yl)ethoxy)phenyl)-4-methyl-1-oxo-3,4-dihydropyrazino[1,2-a]indol-2(1H)-yl)-1-methyl-1H-indole-5-carboxylic acid] were 2.4 nM and 450 nM.
Take `Cc1cc(N2C[C@@H](C)n3c(c(CCCOc4cc(C)c(Cl)c(C)c4)c4ccc(Cl)c(-c5c(C)nn(C)c5C)c43)C2=O)c2c(c1)cc(C(=O)O)n2Cc1cc(C2=NCCO2)ccn1` [Example 600, (R)-7-(7-chloro-10-(3-(4-chloro-3,5-dimethylphenoxy)propyl)-4-methyl-1-oxo-6-(1,3,5-trimethyl-1H-pyrazol-4-yl)-3,4-dihydropyrazino[1,2-a]indol-2(1H)-yl)-1-((4-(4,5-dihydrooxazol-2-yl)pyridin-2-yl)methyl)-5-methyl-1H-indole-2-carboxylic acid]: the inhibition constant Ki at Mcl-1 was less than 0.2 nM. Also, in assay [1], the GI50 was 2500 nM.
In the same order, the values of `Cc1cc(OCCCc2c3n(c4c(-c5c(C)nn(C)c5C)c(Cl)ccc24)[C@H](C)CN(c2cc(CN4CCN(C)CC4)cc4c(C(=O)O)cn(C)c24)C3=O)cc(C)c1Cl` [Example 490, (R)-7-(7-Chloro-10-(3-(4-chloro-3,5-dimethylphenoxy)propyl)-4-methyl-1-oxo-6-(1,3,5-trimethyl-1H-pyrazol-4-yl)-3,4-dihydropyrazino[1,2-a]indol-2(1H)-yl)-1-methyl-5-((4-methylpiperazin-1-yl)methyl)-1H-indole-3-carboxylic acid] are 0.29 nM and 810 nM.
For the molecule `Cc1cc(OCCCc2c3n(c4c(-c5c(C)nn(C)c5C)c(Cl)ccc24)[C@H](C)CN(c2cc(COCCN(C)C)cc4cc(C(=O)O)n(C)c24)C3=O)cc(C)c1Cl` [Example 614, (R)-7-(7-chloro-10-(3-(4-chloro-3,5-dimethylphenoxy)propyl)-4-methyl-1-oxo-6-(1,3,5-trimethyl-1H-pyrazol-4-yl)-3,4-dihydropyrazino[1,2-a]indol-2(1H)-yl)-5-((2-(dimethylamino)ethoxy)methyl)-1-methyl-1H-indole-2-carboxylic acid], the inhibitory constant (Ki) on Mcl-1 is less than 0.2 nM. In addition, in assay [1], the GI50 was determined as 690 nM.
In the same order, the values of `Cc1cc(OCCCc2c3n(c4c(-c5c(C)nn(C)c5C)c(Cl)ccc24)[C@H](C)CN(c2cn(C)c4ccc(-n5cncn5)cc24)C3=O)cc(C)c1Cl` [Example 681, (R)-7-Chloro-10-(3-(4-chloro-3,5-dimethylphenoxy)propyl)-4-methyl-2-(1-methyl-5-(1H-1,2,4-triazol-1-yl)-1H-indol-3-yl)-6-(1,3,5-trimethyl-1H-pyrazol-4-yl)-3,4-dihydropyrazino[1,2-a]indol-1(2H)-one] are 5.5 nM and 940 nM.
Turning to `COCCn1cc(C(=O)O)c2cc(OCCN3CCN(C)CC3)cc(N3C[C@@H](C)n4c(c(CCCOc5cc(C)c(Cl)c(C)c5)c5ccc(Cl)c(-c6c(C)nn(C)c6C)c54)C3=O)c21` [Example 676, (R)-7-(7-chloro-10-(3-(4-chloro-3,5-dimethylphenoxy)propyl)-4-methyl-1-oxo-6-(1,3,5-trimethyl-1H-pyrazol-4-yl)-3,4-dihydropyrazino[1,2-a]indol-2(1H)-yl)-1-(2-methoxyethyl)-5-(2-(4-methylpiperazin-1-yl)ethoxy)-1H-indole-3-carboxylic acid], on Mcl-1, the inhibition constant Ki stood at 0.56 nM. Moreover, the GI50 in assay [1] was 1100 nM.
With `Cc1cc(OCCCc2c3n(c4c(-c5c(C)nn(C)c5C)c(Cl)ccc24)[C@H](C)CN(c2cn(CCN4CCCCC4)c4ccc(C(=O)O)cc24)C3=O)cc(C)c1Cl` [Example 543, (R)-3-(7-Chloro-10-(3-(4-chloro-3,5-dimethylphenoxy)propyl)-4-methyl-1-oxo-6-(1,3,5-trimethyl-1H-pyrazol-4-yl)-3,4-dihydropyrazino[1,2-a]indol-2(1H)-yl)-1-(2-(piperidin-1-yl)ethyl)-1H-indole-5-carboxylic acid], at Mcl-1, the Ki was determined as 2.9 nM. Also, the GI50 in assay [1] is 1800 nM.
For the molecule `Cc1cc(OCCCc2c3n(c4c(-c5c(C)nn(C)c5C)c(Cl)ccc24)[C@H](C)CN(c2cn(C)c4ccc(-c5nc6cccc(C)n6n5)cc24)C3=O)cc(C)c1Cl` [Example 696, (R)-7-Chloro-10-(3-(4-chloro-3,5-dimethylphenoxy)propyl)-4-methyl-2-(1-methyl-5-(5-methyl-[1,2,4]triazolo[1,5-a]pyridin-2-yl)-1H-indol-3-yl)-6-(1,3,5-trimethyl-1H-pyrazol-4-yl)-3,4-dihydropyrazino[1,2-a]indol-1(2H)-one], on Mcl-1, the Ki stood at 1.1 nM. Also, the GI50 in assay [1] was 1400 nM.
